Measured values taken from publication PMC12291837, “Elephant Cathelicidin-Derived Peptides Inhibit Herpes Simplex Virus 1 Infection” (Antibiotics, 2025).
Where no end group is shown, it is not given here.

Legend:
HSV-1 [1] = test: microbe, parasite or virus in culture; type: cell-based, Herpes simplex virus type 1 (HSV-1 17 + strain); conditions: U251 cells
Experimental: (§1) Human glioma cells (U251) were maintained in Dulbecco’s Modified Eagle Medium (DMEM; Gibco, Waltham, MA, USA) supplemented with 10% heat-inactivated fetal bovine serum (FBS; ExCell), 100 U/mL penicillin, and 100 µg/mL streptomycin. Serum inactivation was performed at 56 °C for 30 min prior to medium supplementation. Cell cultures were incubated at 37 °C under 5% CO2 atmosphere. The HSV-1 17 + strain utilized in this study was maintained under laboratory preservation conditions.
U251 cells were seeded into 12-well plates at a density of 2 × 10^5 cells per well and incubated for 12 h. […] Following treatment, the total DNA was extracted by using DNA isolation mini kit (Vazyme, Nanjing, China) under the manufacturer’s instructions.
Total RNA was extracted using TRIzol reagent (Invitrogen, Carlsbad, CA, USA). One microgram of RNA was reverse-transcribed into cDNA by using a reverse transcription kit (Vazyme, China). Diluted gDNA and cDNAs were subjected to qPCR analysis using ChamQ Universal SYBR qPCR Master Mix (Vazyme, China) with the following parameters: 95 °C for 30 s, followed by 40 cycles of 95 °C for 5 s and 60 °C for 30 s, followed by melting curve analysis. Primers for qPCR were synthesized by Sangon Biotech (Shanghai, China) (Appendix A Table A2). The qPCR data were analyzed using the 2^−ΔΔCt method.

HSV-1 [2] = test: HSV-1 footpad inoculation mouse model, viral load (UL30 gene copies) and lung H&E histology; type: in vivo; conditions: C57BL/6J mice, 10 mg/kg i.p. once daily for 5 days
Experimental: Female C57BL/6J mice, aged 6–8 weeks, were purchased from Beijing Vital River Laboratory Animal Technology Co., Ltd. (Beijing, China). […] Except for the vehicle control group, mice in the other groups were subplantarly infected with HSV-1 at a dose of 1.0 × 10^6 PFU per mouse. […] The vehicle control and virus control groups received an equivalent volume of phosphate-buffered saline (PBS). Mice were euthanized 24 h after the last administration, and tissue samples were collected. Body weight was measured daily at a fixed time during the treatment period to generate weight change curves.
Tissues were homogenized using a tissue grinder and total DNA was extracted from homogenate supernatants using a DNA isolation mini kit (Vazyme, China) under the manufacturer’s instructions. To establish a standard curve for real-time quantitative PCR (qPCR), the UL30 gene was used as the target sequence, and a recombinant plasmid containing this gene was constructed. In brief, the UL30 gene was cloned into the pMD19-T vector and transformed into DH5α. After verification by colony PCR and sequencing, high-purity plasmid DNA was extracted, and its concentration was measured using Nanodrop and converted into copy numbers (copies/μL). Then a 10-fold serial dilution (10^1–10^8 copies/μL) was prepared to generate the standard curve. Using the extracted DNA as a template, UL30 gene copy numbers were quantified in mouse tissues through qPCR with UL30 specific primers.
Tissues were fixed in 4% paraformaldehyde for 72 h and subsequently processed by Servicebio Biotechnology Co., Ltd. (Wuhan, China) for paraffin embedding, pathological sectioning, and hematoxylin eosin (H&E) staining.

U251 cells = test: Cytotoxicity assay (CCK-8) on U251 cells; type: cell-based, Human; conditions: 24 h
Experimental: as §1
Cell viability was evaluated by using cell counting kit-8 reagent (CCK-8, Biosharp, Shanghai, China) according to the manufacturer’s protocol. Briefly, U251 cells were seeded in 96-well culture plates and cultured for 12 h at 37 °C. The cells were then treated with or without peptides for 24 h. After that, 10 μL of the CCK-8 reaction mixture were added to each well and incubated at 37 °C for 0.5–4 h. The absorbance of each well was measured at 450 nm with a SpectraMax M2e Multi-Mode Microplate Reader (Molecular Devices, USA). The formula for calculating cell viability is as follows:
Cell viability (%) = (average OD of treated sample-average OD of vehicle sample)/(average OD of cell sample-average OD of vehicle sample) × 100%

## Nc1nc2c(ncn2COCCO)c(=O)[nH]1 [ACV, Acyclovir]
HSV-1 [1]; Human alphaherpesvirus 1, U-251, HSV-1 MOI = 0.1, co-treatment 24 h, qPCR of UL30 DNA, mean ± SEM of three independent experiments, read-out: IC50 against HSV-1
  IC50: 17.6 ± 5.75 µM
HSV-1 [2]; HSV-1 footpad 1.0 × 10^6 PFU, day 5 post-infection, n = 5, HSV-1 control 7.02 ± 0.57
  Lung tissue viral load (HSV-1 UL30 gene copies): 6.01 ± 0.13 log10 copies/μL
HSV-1 [2]; HSV-1 footpad, n = 5, HSV-1 control 7.78 ± 0.41 log10 copies/μL
  Heart tissue viral load versus HSV-1 control group: neither the EM-1 nor the ACV treatment group showed a significant difference
HSV-1 [2]; HSV-1 footpad, compared with HSV-1 control group
  Lung histopathology (H&E staining): preserved normal alveolar architecture

## GRRVKGFFRDVLRRVPYLPGPR-NH2 [EM-2, modified peptide derived from Elephas maximus cathelicidin EM]
U251 cells; U251 cells, CCK-8, 5 μM and 10 μM, compared to peptide EM, EM-3 and EM-4
  Cytotoxic effect on U251 cells (cell viability): significantly lower toxicity
HSV-1 [1]; HSV-1 MOI = 0.1, 24 h, 10 μM peptide, versus virus control group, p < 0.001
  Relative DNA levels of HSV-1 UL30: marked suppression of HSV-1 activity

## RRIRGLRKFFRKSKEKLKKV-NH2 [EM-1]
U251 cells
  CC50 (median cytotoxic concentration): 214.55 ± 36.25 µM
